Source: PubChem BioAssay (NCI)
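Cells were grown in 96-well plates and exposed to each compound for 48 hours at five concentrations; endpoints were interpolated linearly between bracketing concentrations, or set to the highest concentration if not reached. GI50 marks 50% less growth. Definition used: TGI = concentration required for complete inhibition of growth.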

Tests used:
Experiment in all cases: growth of human tumour cells (NCI), 48 h
OVCAR-3 ovarian = system: OVCAR-3 ovarian
TK-10 renal = system: TK-10 renal
K-562 leukemia = system: K-562 leukemia
A498 renal = system: A498 renal
BT-549 breast = system: BT-549 breast
IGROV1 ovarian = system: IGROV1 ovarian
SNB-19 CNS = system: SNB-19 CNS
COLO 205 colon = system: COLO 205 colon
SK-MEL-5 melanoma = system: SK-MEL-5 melanoma
NCI-H522 lung = system: NCI-H522 lung
HL-60(TB) leukemia = system: HL-60(TB) leukemia
OVCAR-4 ovarian = system: OVCAR-4 ovarian
SK-OV-3 ovarian = system: SK-OV-3 ovarian
NCI/ADR-RES ovarian = system: NCI/ADR-RES ovarian
MDA-MB-231 breast = system: MDA-MB-231 breast
EKVX NSCLC = system: EKVX NSCLC
HOP-92 NSCLC = system: HOP-92 NSCLC
MOLT-4 leukemia = system: MOLT-4 leukemia
786-0 renal = system: 786-0 renal
SN12C renal = system: SN12C renal
HCT-15 colon = system: HCT-15 colon
SF-268 CNS = system: SF-268 CNS
HT29 colon = system: HT29 colon
HOP-62 NSCLC = system: HOP-62 NSCLC
NCI-H460 lung = system: NCI-H460 lung
SW-620 colon = system: SW-620 colon
DU-145 prostate = system: DU-145 prostate
U251 CNS = system: U251 CNS
UACC-62 melanoma = system: UACC-62 melanoma
A549 NSCLC = system: A549 NSCLC
KM12 colon = system: KM12 colon
HS 578T breast = system: HS 578T breast
NCI-H23 lung = system: NCI-H23 lung
UACC-257 melanoma = system: UACC-257 melanoma
SK-MEL-2 melanoma = system: SK-MEL-2 melanoma
HCC-2998 colon = system: HCC-2998 colon
SF-295 CNS = system: SF-295 CNS
NCI-H226 lung = system: NCI-H226 lung
SR leukemia = system: SR leukemia
UO-31 renal = system: UO-31 renal
OVCAR-5 ovarian = system: OVCAR-5 ovarian
RPMI-8226 leukemia = system: RPMI-8226 leukemia
LOX IMVI melanoma = system: LOX IMVI melanoma
CCRF-CEM leukemia = system: CCRF-CEM leukemia
PC-3 prostate = system: PC-3 prostate
HCT-116 colon = system: HCT-116 colon
OVCAR-8 ovarian = system: OVCAR-8 ovarian
SF-539 CNS = system: SF-539 CNS
MCF7 breast = system: MCF7 breast
MDA-MB-435 = system: MDA-MB-435
M14 melanoma = system: M14 melanoma
RXF 393 renal = system: RXF 393 renal
SK-MEL-28 melanoma = system: SK-MEL-28 melanoma
T-47D breast = system: T-47D breast
ACHN renal = system: ACHN renal
CAKI-1 renal = system: CAKI-1 renal
MALME-3M melanoma = system: MALME-3M melanoma
SNB-75 CNS = system: SNB-75 CNS

## CCOC(=O)[C@@H](C)C[C@H](Cc1ccccc1)NC(=O)c1csc([C@@H](C[C@H](C(C)C)N(C)C(=O)[C@H](CCC(C)C)NC(=O)[C@H]2CCCCN2C)OC(C)=O)n1
OVCAR-3 ovarian
  GI50: < 0.00333 µM
  TGI: 0.0335 µM
TK-10 renal
  GI50: 4.12 µM
  TGI: > 33.3 µM
K-562 leukemia
  GI50: < 0.00333 µM
  TGI: 4.45 µM
A498 renal
  GI50: 0.00419 µM
  TGI: 0.0226 µM
BT-549 breast
  GI50: 0.0119 µM
  TGI: 0.195 µM
IGROV1 ovarian
  GI50: 0.00335 µM
  TGI: 29.8 µM
SNB-19 CNS
  GI50: < 0.00333 µM
  TGI: 10.7 µM
COLO 205 colon
  GI50: 0.00439 µM
  TGI: 0.0352 µM
SK-MEL-5 melanoma
  GI50: < 0.00333 µM
  TGI: 0.0927 µM
NCI-H522 lung
  GI50: < 0.00333 µM
  TGI: 0.00708 µM
HL-60(TB) leukemia
  GI50: < 0.00333 µM
  TGI: 0.0104 µM
OVCAR-4 ovarian
  GI50: 0.497 µM
  TGI: > 33.3 µM
SK-OV-3 ovarian
  GI50: 0.00929 µM
  TGI: 9.26 µM
NCI/ADR-RES ovarian
  GI50: 0.143 µM
  TGI: 24 µM
MDA-MB-231 breast
  GI50: 0.00821 µM
  TGI: 0.398 µM
EKVX NSCLC
  GI50: 0.0153 µM
  TGI: > 33.3 µM
HOP-92 NSCLC
  GI50: 0.658 µM
  TGI: 23.3 µM
MOLT-4 leukemia
  GI50: 0.0167 µM
  TGI: 5.1 µM
786-0 renal
  GI50: 0.0135 µM
  TGI: 5.53 µM
SN12C renal
  GI50: 0.0159 µM
  TGI: 4.59 µM
HCT-15 colon
  GI50: 0.0138 µM
  TGI: 4.19 µM
SF-268 CNS
  GI50: 0.0205 µM
  TGI: 5.87 µM
HT29 colon
  GI50: < 0.00333 µM
  TGI: 0.0811 µM
HOP-62 NSCLC
  GI50: 0.00932 µM
  TGI: 5.68 µM
NCI-H460 lung
  GI50: 0.00407 µM
  TGI: 3.78 µM
SW-620 colon
  GI50: < 0.00333 µM
  TGI: 7.14 µM
DU-145 prostate
  GI50: 0.00892 µM
  TGI: 26.2 µM
U251 CNS
  GI50: 0.00758 µM
  TGI: 5.92 µM
UACC-62 melanoma
  GI50: < 0.00333 µM
  TGI: 6.92 µM
A549 NSCLC
  GI50: 0.0145 µM
  TGI: > 33.3 µM
KM12 colon
  GI50: < 0.00333 µM
  TGI: 4.81 µM
HS 578T breast
  GI50: 0.00922 µM
  TGI: 3.54 µM
NCI-H23 lung
  GI50: 0.0129 µM
  TGI: > 33.3 µM
UACC-257 melanoma
  GI50: 4.24 µM
  TGI: 10.3 µM
SK-MEL-2 melanoma
  GI50: < 0.00333 µM
  TGI: 6.65 µM
HCC-2998 colon
  GI50: < 0.00333 µM
  TGI: 4.28 µM
SF-295 CNS
  GI50: 0.00575 µM
  TGI: 3.68 µM
NCI-H226 lung
  GI50: 0.0495 µM
  TGI: 11.6 µM
SR leukemia
  GI50: < 0.00333 µM
  TGI: 3.77 µM
UO-31 renal
  GI50: 0.0227 µM
  TGI: 5.14 µM
OVCAR-5 ovarian
  GI50: 0.0115 µM
  TGI: 10.3 µM
RPMI-8226 leukemia
  GI50: < 0.00333 µM
  TGI: 3.83 µM
LOX IMVI melanoma
  GI50: 0.0133 µM
  TGI: 4.85 µM
CCRF-CEM leukemia
  GI50: 0.006 µM
  TGI: 4.35 µM
PC-3 prostate
  GI50: < 0.00333 µM
  TGI: 7.15 µM
HCT-116 colon
  GI50: 0.00424 µM
  TGI: 8.17 µM
OVCAR-8 ovarian
  GI50: 0.0125 µM
  TGI: 10.1 µM
SF-539 CNS
  GI50: 0.00838 µM
  TGI: 0.0289 µM
MCF7 breast
  GI50: < 0.00333 µM
  TGI: 6.3 µM

## Cc1cc(S(=O)(=O)NC#N)c(S/C(=N\Nc2ccc([N+](=O)[O-])cc2)c2ccccc2)cc1Cl
OVCAR-3 ovarian
  GI50: 14.2 µM
  TGI: 30.5 µM
TK-10 renal
  GI50: 16 µM
  TGI: 38.3 µM
MDA-MB-435
  GI50: 32.7 µM
  TGI: > 100 µM
K-562 leukemia
  GI50: 15.2 µM
  TGI: 42.9 µM
BT-549 breast
  GI50: 15.7 µM
  TGI: 36.7 µM
IGROV1 ovarian
  GI50: 17.9 µM
  TGI: 39.3 µM
SNB-19 CNS
  GI50: 38 µM
  TGI: > 100 µM
M14 melanoma
  GI50: 18.1 µM
  TGI: 37.3 µM
COLO 205 colon
  GI50: 44.7 µM
  TGI: > 100 µM
RXF 393 renal
  GI50: 23.4 µM
  TGI: 48.9 µM
SK-MEL-5 melanoma
  GI50: 19.3 µM
  TGI: 35.7 µM
NCI-H522 lung
  GI50: 14.6 µM
  TGI: 32.6 µM
HL-60(TB) leukemia
  GI50: 21.6 µM
  TGI: 83.1 µM
SK-MEL-28 melanoma
  GI50: 17.2 µM
  TGI: 37.4 µM
OVCAR-4 ovarian
  GI50: 13.9 µM
  TGI: 31.8 µM
SK-OV-3 ovarian
  GI50: > 100 µM
  TGI: > 100 µM
EKVX NSCLC
  GI50: 17.2 µM
  TGI: 34.7 µM
HOP-92 NSCLC
  GI50: 10.7 µM
  TGI: 32.7 µM
MOLT-4 leukemia
  GI50: 4.43 µM
  TGI: 81.2 µM
786-0 renal
  GI50: 33.8 µM
  TGI: > 100 µM
T-47D breast
  GI50: > 100 µM
  TGI: > 100 µM
SN12C renal
  GI50: 20.9 µM
  TGI: 52.3 µM
SF-268 CNS
  GI50: 19.2 µM
  TGI: 43.7 µM
HOP-62 NSCLC
  GI50: 17.2 µM
  TGI: 32.3 µM
NCI-H460 lung
  GI50: 18.7 µM
  TGI: 36.3 µM
SW-620 colon
  GI50: 17.1 µM
  TGI: 30.8 µM
DU-145 prostate
  GI50: 11.7 µM
  TGI: 24 µM
U251 CNS
  GI50: 14.9 µM
  TGI: 28.1 µM
UACC-62 melanoma
  GI50: 21.5 µM
  TGI: 51.8 µM
A549 NSCLC
  GI50: 18.7 µM
  TGI: 40.8 µM
KM12 colon
  GI50: 16.6 µM
  TGI: 30.2 µM
HS 578T breast
  GI50: 16.2 µM
  TGI: 43.2 µM
NCI-H23 lung
  GI50: 15.4 µM
  TGI: 28.8 µM
ACHN renal
  GI50: 18 µM
  TGI: 41.5 µM
CAKI-1 renal
  GI50: 21.1 µM
  TGI: 45.8 µM
UACC-257 melanoma
  GI50: 35.9 µM
  TGI: > 100 µM
SK-MEL-2 melanoma
  GI50: 13.8 µM
  TGI: 34 µM
HCC-2998 colon
  GI50: 17.2 µM
  TGI: 30.9 µM
SF-295 CNS
  GI50: 15.9 µM
  TGI: 34 µM
NCI-H226 lung
  GI50: 16.3 µM
  TGI: 33.1 µM
UO-31 renal
  GI50: 15.5 µM
  TGI: 36.7 µM
OVCAR-5 ovarian
  GI50: 15.7 µM
  TGI: 32.4 µM
MALME-3M melanoma
  GI50: 16.5 µM
  TGI: 39.6 µM
RPMI-8226 leukemia
  GI50: 19.5 µM
  TGI: 61.8 µM
LOX IMVI melanoma
  GI50: 15.4 µM
  TGI: 28.8 µM
CCRF-CEM leukemia
  GI50: 20.2 µM
  TGI: 51.5 µM
PC-3 prostate
  GI50: 21.5 µM
  TGI: 57.1 µM
SNB-75 CNS
  GI50: 20.4 µM
  TGI: > 100 µM
HCT-116 colon
  GI50: 13.8 µM
  TGI: 30.6 µM
OVCAR-8 ovarian
  GI50: 16.8 µM
  TGI: 42.8 µM
MCF7 breast
  GI50: 14.7 µM
  TGI: 28.3 µM
